Experimental data as given in patent US20160151389A1 (priority 2014, published 2016).

Tests used:
[1] = test system: JNK MAPK; test: Phosphorylation of JNK MAPK in LPS-activated BV-2 microglia cells (western blot); format: cell-based, mouse; conditions: LPS-induced, vehicle group 5.5±0.3 fold
Method: (§1) BV-2 cells (i.e., a mouse microglial cell line) were cultured in DMEM at a concentration of 2×10^5 cells per mL of the DMEM at 37° C. with 5% CO2 for 16 hours, wherein the DMEM was supplemented with deactivated fetal bovine serum (FBS, 10%), penicillin G (100 units/ml)/streptomycin (100 μg/ml), L-glutamine (3.65 mM), 4-(2-hydroxyethyl)-1-piperazineethanesulfonic acid (HEPES, 18 mM) and NaHCO3 (23.57 mM). […] Then, BV-2 cells were activated by being treated with lipopolysaccharide (LPS, 150 ng/ml) for 24 hours. BV-2 cells were lysed by a cell lysis buffer and centrifuged.

[2] = test system: MMP-9; test: MMP-9-mediated gelatinolysis in astrocytes induced by LPS or thrombin (zymographic analysis); format: cell-based, rat
Source text: It has been known that the MMP-9-mediated gelatinolysis in astrocytes can be induced by LPS in a concentration dependent manner. The preparation and culture of astrocytes can be seen in “Preparation of separate astroglial and oligodendroglial cell cultures from rat cerebral tissue. J. Cell Biol. 85:890-902 (1980)” and “A potent antioxidant, lycopene, affords neuroprotection against microglia activation and focal cerebral ischemia in rats. In Vivo. 18:351-356 (2004)”, which are entirely incorporated hereinto by reference.
Astrocytes were respectively treated with vehicle (i.e., 0.2% ethanol) or ergostatrien-3β-ol (1, 5 and 10 μM) for 15 minutes, and then induced by LPS (500 ng/ml) or thrombin (10 units/ml) for 24 hours to induce the activation of MMP-9 in the astrocytes.

[3] = test system: ICH mouse model; test: Brain water content in collagenase-induced ICH mouse model; format: in vivo; conditions: ipsilateral hemisphere, 48 hours after ICH; 30 mg/kg orally at 30 minutes post-collagenase; ICH group 81.2±0.3%, NS group 78.7±0.1
Method: Male C57B2/6J mice (each weighs about 23 to 28 g) were anesthetized with chloral hydrate (400 mg/kg), and then a 1 mm burr hole was drilled 2 mm lateral to the midline and 0.3 mm anterior to the bregma of each mouse. Type VII-S collagenase (0.02 unit dissolved in 1 μl saline) was infused into the area of the caudate/putamen at a rate of 0.2 μl/min for 5 minutes. After an additional period of 5 minutes, the burr hole was occluded. The mice were allowed to recover with a controlled heating lamp and a controlled heating pad (37° C.) and an ICH mouse model was obtained, hereinafter referred to as “ICH group.” Additionally, a pseudo-animal that was handled with the same mode but only infused with an equal volume of normal saline (NS) was obtained, hereinafter referred to as “NS group.” […]
After wet weights of the brain tissues of ipsilateral hemisphere and contralateral hemisphere of the “NS group,” “ICH group” and “ICH+ergostatrien-3β-ol group”) mice were measured, the brain tissues of the ipsilateral hemisphere and contralateral hemisphere were dried at 100° C. for 24 hours to obtain the dry weights. The brain water content was calculated by the following formula: (wet weight−dry weight)/wet weight×100%.

[4] = test system: ICH mouse model; test: Neurobehavioral test in collagenase-induced ICH mouse model; format: in vivo; conditions: 48 hours after ICH; 30 mg/kg orally; minimum 3, maximum 18; ICH group 9.6±1.2
Method: Male C57B2/6J mice (each weighs about 23 to 28 g) were anesthetized with chloral hydrate (400 mg/kg), and then a 1 mm burr hole was drilled 2 mm lateral to the midline and 0.3 mm anterior to the bregma of each mouse. Type VII-S collagenase (0.02 unit dissolved in 1 μl saline) was infused into the area of the caudate/putamen at a rate of 0.2 μl/min for 5 minutes. After an additional period of 5 minutes, the burr hole was occluded. The mice were allowed to recover with a controlled heating lamp and a controlled heating pad (37° C.) and an ICH mouse model was obtained, hereinafter referred to as “ICH group.” Additionally, a pseudo-animal that was handled with the same mode but only infused with an equal volume of normal saline (NS) was obtained, hereinafter referred to as “NS group.”
At 30 minutes post-collagenase injection, ergostatrien-3β-ol suspended in a 0.5% (w/v) vehicle (e.g., carboxymethyl cellulose (CMC)) was orally administered to the mouse at a dosage of 30 mg/kg. […]
At 48 hours after ICH was induced by collagenase, three groups of mice mentioned in Example 4 (i.e., the “NS group,” “ICH group” and “ICH+ergostatrien-3β-ol group”) were analyzed by a neurobehavioral test, which includes six tests for spontaneous activity, symmetry in the movement of four limbs, forepaw outstretching, climbing, body proprioception, and response to vibrissae touch. […]

[5] = test system: COX-2; test: COX-2 expression in LPS-activated BV-2 microglia cells (western blot); format: cell-based, mouse; conditions: for relative expression rate of COX-2, fold of that of the control group: LPS 150 ng/ml 24 hours, vehicle group 8.34±0.05-fold; for inhibition ratio of COX-2 expression: LPS 150 ng/ml
Method: as §1

CC(C)[C@@H](C)/C=C/[C@@H](C)C1CCC2C3=CCC4C[C@@H](O)CC[C@]4(C)C3=CC[C@@]21C (stereo partly shown)
phosphorylation level of JNK MAPK, fold of that of the control group ([1]; 0.5 μM pre-treatment): 5.5±0.9 fold | phosphorylation level of JNK MAPK, fold of that of the control group ([1]; 1 μM pre-treatment): 3.9±0.2 fold | phosphorylation level of JNK MAPK, fold of that of the control group ([1]; 5 μM pre-treatment): 3.5±0.6 fold | phosphorylation level of JNK MAPK, fold of that of the control group ([1]; 10 μM pre-treatment): 2.4±0.3 fold | MMP-9-mediated gelatinolysis, fold of that of the control group ([2]; LPS 500 ng/ml 24 hours, first of three values, 1 μM per b67 (b68 lists 0.5, 1, 5 or 10 μM), vehicle group 3.3±0.4-fold): 2.9±0.3 fold | MMP-9-mediated gelatinolysis, fold of that of the control group ([2]; LPS 500 ng/ml 24 hours, second of three values, 5 μM, vehicle group 3.3±0.4-fold): 2.5±0.3 fold | MMP-9-mediated gelatinolysis, fold of that of the control group ([2]; LPS 500 ng/ml 24 hours, third of three values, 10 μM, vehicle group 3.3±0.4-fold): 2.1±0.3 fold | MMP-9-mediated gelatinolysis, fold of that of the control group ([2]; thrombin 10 units/ml 24 hours, 5 μM, vehicle group 5.5±0.4-fold): 5.1±0.4 fold | MMP-9-mediated gelatinolysis, fold of that of the control group ([2]; thrombin 10 units/ml 24 hours, 10 μM, vehicle group 5.5±0.4-fold): 3.3±0.8 fold | brain water content [3]: 80.4±0.3% | neurobehavioral score [4]: 13.4±1.1 | relative expression rate of COX-2, fold of that of the control group ([5]; 0.5 μM pre-treatment 15 minutes): 4.80±0.75 fold | inhibition ratio of COX-2 expression ([5]; 0.5 μM): 74% | relative expression rate of COX-2, fold of that of the control group ([5]; 1 μM pre-treatment 15 minutes): 3.91±0.64 fold | inhibition ratio of COX-2 expression ([5]; 1 μM): 94% | relative expression rate of COX-2, fold of that of the control group ([5]; 5 μM pre-treatment 15 minutes): 1.92±0.98 fold | inhibition ratio of COX-2 expression ([5]; 5 μM): 98% | relative expression rate of COX-2, fold of that of the control group ([5]; 10 μM pre-treatment 15 minutes): 2.14±0.86 fold | inhibition ratio of COX-2 expression ([5]; 10 μM): 106%
